Source: PubChem BioAssay AID248 (DTP/NCI, 2004)
Several values for one entry are separate records, joined by “and”; a condition that tells them apart may be missing. Identical values can stand only once. Toxic doses and inconclusive results are not listed. No stated cut-off is given here; in the data, active means T/C of 150% or more; inactive means T/C below 125%.

System: L1210 leukemia ip in BDF1 mice, survival T/C
Assay: NCI In Vivo Anticancer Drug Screen. Data for tumor model L1210 Leukemia (intraperitoneal) in B6D2F1 (BDF1) mice
Conditions: endpoint: mean survival time, higher = longer survival
In short: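 Each compound was tested against a transplantable tumor grown in mice. The endpoint was survival, with treated animals benchmarked against vehicle controls as a simple ratio.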

[1] = dose: 6.25 mg/kg/injection, schedule: Q01DX009 (ip), vehicle: saline
[2] = dose: 12.5 mg/kg/injection, schedule: Q01DX009 (ip), vehicle: saline
[3] = dose: 25.0 mg/kg/injection, schedule: Q01DX009 (ip), vehicle: saline
[4] = dose: 25.0 mg/kg/injection, schedule: Q04DX003 (ip), vehicle: saline
[5] = dose: 50.0 mg/kg/injection, schedule: Q04DX003 (ip), vehicle: saline
[6] = dose: 100.0 mg/kg/injection, schedule: Q04DX003 (ip), vehicle: saline
[7] = dose: 100.0 mg/kg/injection, schedule: Q01DX009 (ip), vehicle: Klucel (hydroxypropylcellulose) (HPC)
[8] = dose: 200.0 mg/kg/injection, schedule: Q01DX009 (ip), vehicle: Klucel (hydroxypropylcellulose) (HPC)
[9] = dose: 400.0 mg/kg/injection, schedule: Q01DX009 (ip), vehicle: Klucel (hydroxypropylcellulose) (HPC)
[10] = dose: 200.0 mg/kg/injection, schedule: Q04DX003 (ip), vehicle: Klucel (hydroxypropylcellulose) (HPC)
[11] = dose: 400.0 mg/kg/injection, schedule: Q04DX003 (ip), vehicle: Klucel (hydroxypropylcellulose) (HPC)
[12] = dose: 100.0 mg/kg/injection, schedule: Q01DX001 (ip), vehicle: carboxymethylcellulose (CMC)
[13] = dose: 200.0 mg/kg/injection, schedule: Q01DX001 (ip), vehicle: carboxymethylcellulose (CMC)
[14] = dose: 400.0 mg/kg/injection, schedule: Q01DX001 (ip), vehicle: carboxymethylcellulose (CMC)

Measured: T/C

CN1CCC(CN2c3ccccc3Sc3ccccc32)C1 (configuration not stated)
inactive: dose: 3.12 mg/kg/injection, schedule: Q01DX009 (ip), vehicle: saline 95 % of control | [1] 107 % of control | [2] 101 % of control | [3] 101 % of control

NP(N)(=O)c1ccccc1
inactive: dose: 100.0 mg/kg/injection, schedule: Q04DX003 (ip), vehicle: saline with Tween-80 107 % of control | dose: 200.0 mg/kg/injection, schedule: Q04DX003 (ip), vehicle: saline with Tween-80 118 % of control | dose: 400.0 mg/kg/injection, schedule: Q04DX003 (ip), vehicle: saline with Tween-80 105 % of control

COC(=O)C(Cc1c[nH]c2ccccc12)N(C)C (configuration not stated)
inactive: dose: 100.0 mg/kg/injection, schedule: Q01DX001 (ip), vehicle: other 101 % of control | dose: 200.0 mg/kg/injection, schedule: Q01DX001 (ip), vehicle: other 103 % of control | dose: 400.0 mg/kg/injection, schedule: Q01DX001 (ip), vehicle: other 98 % of control

CN(CC#CCOc1ccc(Cl)cc1)c1ccccc1
inactive: dose: 12.5 mg/kg/injection, schedule: Q01DX001 (ip), vehicle: carboxymethylcellulose (CMC) 96 % of control | dose: 12.5 mg/kg/injection, schedule: Q01DX009 (ip), vehicle: carboxymethylcellulose (CMC) 97 % of control and 90 % of control | dose: 12.5 mg/kg/injection, schedule: Q04DX002 (ip), vehicle: carboxymethylcellulose (CMC) 93 % of control and 106 % of control | dose: 12.5 mg/kg/injection, schedule: Q04DX003 (ip), vehicle: carboxymethylcellulose (CMC) 103 % of control | dose: 25.0 mg/kg/injection, schedule: Q01DX001 (ip), vehicle: carboxymethylcellulose (CMC) 96 % of control | dose: 25.0 mg/kg/injection, schedule: Q01DX009 (ip), vehicle: carboxymethylcellulose (CMC) 93 % of control | dose: 25.0 mg/kg/injection, schedule: Q04DX002 (ip), vehicle: carboxymethylcellulose (CMC) 93 % of control and 110 % of control | dose: 25.0 mg/kg/injection, schedule: Q04DX003 (ip), vehicle: carboxymethylcellulose (CMC) 102 % of control | dose: 50.0 mg/kg/injection, schedule: Q01DX001 (ip), vehicle: carboxymethylcellulose (CMC) 96 % of control | dose: 50.0 mg/kg/injection, schedule: Q01DX009 (ip), vehicle: carboxymethylcellulose (CMC) 93 % of control and 90 % of control | dose: 50.0 mg/kg/injection, schedule: Q04DX002 (ip), vehicle: carboxymethylcellulose (CMC) 92 % of control and 94 % of control | dose: 50.0 mg/kg/injection, schedule: Q04DX003 (ip), vehicle: carboxymethylcellulose (CMC) 97 % of control | dose: 100.0 mg/kg/injection, schedule: Q04DX002 (ip), vehicle: carboxymethylcellulose (CMC) 95 % of control | dose: 200.0 mg/kg/injection, schedule: Q04DX002 (ip), vehicle: carboxymethylcellulose (CMC) 88 % of control | dose: 400.0 mg/kg/injection, schedule: Q04DX002 (ip), vehicle: carboxymethylcellulose (CMC) 88 % of control

C[CH2][Sn]1([CH2]C)[O]OC(c2ccccc2)[O]1 (configuration not stated)
inactive: dose: 0.78 mg/kg/injection, schedule: Q01DX009 (ip), vehicle: saline with Tween-80 101 % of control and 102 % of control | dose: 1.56 mg/kg/injection, schedule: Q01DX009 (ip), vehicle: saline with Tween-80 101 % of control and 110 % of control | dose: 3.12 mg/kg/injection, schedule: Q01DX009 (ip), vehicle: saline with Tween-80 105 % of control and 122 % of control | dose: 6.25 mg/kg/injection, schedule: Q01DX009 (ip), vehicle: saline with Tween-80 100 % of control | dose: 6.25 mg/kg/injection, schedule: Q04DX002 (ip), vehicle: saline with Tween-80 94 % of control | dose: 12.5 mg/kg/injection, schedule: Q01DX009 (ip), vehicle: saline with Tween-80 114 % of control and 121 % of control | dose: 12.5 mg/kg/injection, schedule: Q04DX002 (ip), vehicle: saline with Tween-80 96 % of control | dose: 25.0 mg/kg/injection, schedule: Q01DX009 (ip), vehicle: saline with Tween-80 91 % of control

CC(N)C(O)c1cccc(O)c1 (configuration not stated)
inactive: [1] 117 % of control | [2] 100 % of control | [3] 105 % of control | [4] 108 % of control | dose: 50.0 mg/kg/injection, schedule: Q01DX009 (ip), vehicle: saline 100 % of control | [5] 105 % of control | dose: 100.0 mg/kg/injection, schedule: Q01DX009 (ip), vehicle: saline 117 % of control | [6] 97 % of control

CN(C)C(=O)c1ccccc1O
inactive: [7] 100 % of control | [8] 90 % of control | [9] 90 % of control

CCOC(=O)/C(C#N)=C(\CC)c1ccccc1
inactive: [7] 98 % of control | [8] 101 % of control

CC#CC(C)=O
inactive: [4] 100 % of control | [5] 92 % of control | [6] 100 % of control

CC(=O)N1CCN(C(C)=O)c2ccccc21
inactive: dose: 100.0 mg/kg/injection, schedule: Q04DX003 (ip), vehicle: Klucel (hydroxypropylcellulose) (HPC) 106 % of control | [10] 103 % of control | [11] 106 % of control

Cc1cc[n+](C)c2ccccc12
inactive: dose: 9.37 mg/kg/injection, schedule: Q01DX009 (ip), vehicle: saline with Tween-80 101 % of control | dose: 18.75 mg/kg/injection, schedule: Q01DX009 (ip), vehicle: saline with Tween-80 112 % of control | dose: 37.5 mg/kg/injection, schedule: Q01DX009 (ip), vehicle: saline with Tween-80 100 % of control | dose: 37.5 mg/kg/injection, schedule: Q04DX003 (ip), vehicle: saline 100 % of control | dose: 75.0 mg/kg/injection, schedule: Q01DX001 (ip), vehicle: saline 103 % of control

COc1cc(OC)c(OC)cc1/C=C\c1ccnc2ccccc12
inactive: [12] 105 % of control | [7] 98 % of control | [13] 100 % of control | [8] 108 % of control | [10] 108 % of control | [14] 109 % of control | [9] 114 % of control | [11] 108 % of control | dose: 800.0 mg/kg/injection, schedule: Q01DX009 (ip), vehicle: Klucel (hydroxypropylcellulose) (HPC) 112 % of control | dose: 800.0 mg/kg/injection, schedule: Q04DX003 (ip), vehicle: Klucel (hydroxypropylcellulose) (HPC) 110 % of control | dose: 1600.0 mg/kg/injection, schedule: Q04DX003 (ip), vehicle: Klucel (hydroxypropylcellulose) (HPC) 108 % of control

Cc1cc(=O)c(O)c(N(C)C)o1
inactive: dose: 100.0 mg/kg/injection, schedule: Q04DX002 (ip), vehicle: saline with Tween-80 102 % of control | dose: 200.0 mg/kg/injection, schedule: Q04DX002 (ip), vehicle: saline with Tween-80 102 % of control | dose: 400.0 mg/kg/injection, schedule: Q04DX002 (ip), vehicle: saline with Tween-80 115 % of control

NC(=O)C(=O)NO
inactive: dose: 100.0 mg/kg/injection, schedule: Q01DX001 (ip), vehicle: saline 97 % of control | dose: 200.0 mg/kg/injection, schedule: Q01DX001 (ip), vehicle: saline 106 % of control | dose: 400.0 mg/kg/injection, schedule: Q01DX001 (ip), vehicle: saline 105 % of control

Nc1cc2c(cc1Br)[nH]c(=O)c1ccccc12
inactive: [12] 98 % of control | [13] 96 % of control | [14] 93 % of control
